The target in assay [1] is T1, recombinant human KAT-II (kynurenine aminotransferase II) (Homo sapiens, UniProt Q8N5Z0).
T1 construct: gene AADAT; recombinant, purchased from R&D Systems (Bio-Techne)
As to the kind of experiment: microplate fluorescent kynurenine aminotransferase assay coupled to glutamate dehydrogenase. In kind it is biochemical.

Assay [2] concerns the target T1, recombinant human KAT-II (kynurenine aminotransferase II). As to the kind of experiment: Lineweaver-Burk analysis, same fluorescent assay. In kind it is biochemical. As to the method:
Lineweaver-Burk analysis, same fluorescent assay on recombinant human KAT-II (kynurenine aminotransferase II) | competitive inhibition constant (Ki) for herbacetin and (-)-Epicatechin was calculated

Like-named read-outs stand apart in the source and are kept apart here.

T1 sequence (Q8N5Z0 30-425): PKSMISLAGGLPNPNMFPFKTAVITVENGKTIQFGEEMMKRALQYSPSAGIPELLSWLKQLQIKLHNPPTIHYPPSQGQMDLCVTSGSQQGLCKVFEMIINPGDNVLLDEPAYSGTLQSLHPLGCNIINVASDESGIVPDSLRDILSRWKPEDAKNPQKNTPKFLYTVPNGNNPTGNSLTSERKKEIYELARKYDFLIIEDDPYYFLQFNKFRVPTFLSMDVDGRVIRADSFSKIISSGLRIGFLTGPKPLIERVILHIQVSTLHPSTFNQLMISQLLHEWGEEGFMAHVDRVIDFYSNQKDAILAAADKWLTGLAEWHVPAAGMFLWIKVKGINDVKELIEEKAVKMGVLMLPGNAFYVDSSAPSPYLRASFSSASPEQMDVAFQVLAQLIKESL

Turning to `Oc1cc(O)c2c(c1)O[C@H](c1ccc(O)c(O)c1)[C@H](O)C2` [(-)-Epicatechin], the 50% inhibitory concentration (IC50) in assay [1] was 8.76 ± 0.76 µM. The Ki in assay [2] is 9.23 ± 0.39 µM. For `O=c1c(O)c(-c2ccc(O)cc2)oc2c(O)c(O)cc(O)c12` [herbacetin], in that order: 5.98 ± 0.18 µM and 7.64 ± 0.46 µM. Take `N[C@H]1Cc2ccccc2N(O)C1=O` [PF-04859989, reference compound]: the IC50 in assay [1] (1 mM L-KYN, 50 µM α-ketoglutaric acid, 5 µM PLP, pH 7.5, 30 min pre-incubation at room temperature, irreversible (binds PLP), covalent, non-competitive, error printed as 1.83) turned out to be 0.0279 ± 0.00181 µM.

The values are drawn from PMC11768104, “Identification of Two Flavonoids as New and Safe Inhibitors of Kynurenine Aminotransferase II via Computational and In Vitro Study” (Pharmaceuticals, 2025).
